# Experimental data as given in patent US9192560B2, “Stable composition comprising an anti-ageing compound and a solvent” (CHANEL PARFUMS BEAUTE, priority 2012, dated 2015).
# Where two headings read alike, the source gives them in different places.
# What was measured:
# [1] = Diacetylresveratryl thioctate stabilization test in candidate solvents (solubility at t0 and a day later); conditions: for Solubility 1 D/AT / Solubility t0/AT: diacetylresveratryl thioctate in the named solvent, ambient temperature; for Solubility 1 D/AT: a day later; for Solubility t0/AT: initial; for Stability: stabilization of diacetylresveratryl thioctate by the named solvent
# Method: The term “stabilization” is intended to mean an absence of crystallization of diacetylresveratryl thioctate after 10 days at 4° C. and six months at AT.
# The candidate solvents thus chosen are then subjected to the stabilization test. This test consists in comparing the initial solubility (t0) and the solubility a day later (1D) at ambient temperature (AT).
# [2] = Study of olfactory stability of Base with odor absorber
# Method: A Base composition as follows was prepared. In this composition, octocrylene is used as diacetylresveratryl thioctate-stabilizing solvent.
# 0.6% of each candidate odor absorber was added to one of the base compositions above and the olfactory stability was tested at three temperatures (ambient temperature, 5° C. and 45° C.) and at the following times: • at the beginning (to), • 1 month (1M), • 2 months (2M) and • 3 months (3M).
# [3] = Stability of diacetylresveratryl thioctate in the formulation with odor absorber; assay type: physicochemical; conditions: 0.6% odor absorber in Base (0.10% diacetylresveratryl thioctate), two months
# Method: A diacetylresveratryl thioctate stability test was carried out for the odor absorbers retained in Example 3, according to the following protocol, for the purpose of confirming the compatibility between the solvent and the odor absorber.
# [4] = Resveratrol stabilization test in solvents (comparative example); assay type: physicochemical
# Method: The stabilization of resveratrol by dimethyl isosorbide, ethylhexyl methoxycrylene and octocrylene was evaluated according to the same protocol as Example 1-a, except that the solubility was evaluated on the same day as to (0D).
# [5] = listed as ethylhexyl methoxycrylene
compound,measurement,setting,value
O=C(Oc1ccccc1)c1ccccc1 [Phenyl benzoate],Solubility 1 D/AT,[1],Clear
same,Solubility t0/AT,[1],Partially soluble
same,Solubility t0/AT,[1]; listed as phenyl benzoate,partially soluble
same,Stability,[1],Yes
Kaolin,olfactory stability t0,[2],Yes
O=C1CC[C@@H](C(=O)[O-])N1.O=C1CC[C@@H](C(=O)[O-])N1.[Cu+2] [Copper L-pyrrolidone carboxylate salt],olfactory stability 1 M,"[2]; 0.6% odor absorber in Base, 1 month, identical at AT, 5° C. and 45° C.",Yes
same,olfactory stability 2 M 5° C.,"[2]; 0.6% odor absorber in Base, 2 months, 5° C.",Yes
same,olfactory stability 2 M 45° C.,"[2]; 0.6% odor absorber in Base, 2 months, 45° C.",Yes
same,olfactory stability 2 M AT,"[2]; 0.6% odor absorber in Base, 2 months, ambient temperature",Yes
same,olfactory stability 3 M,"[2]; 0.6% odor absorber in Base, 3 months, identical at AT, 5° C. and 45° C.",Yes
same,olfactory stability t0,"[2]; 0.6% odor absorber in Base, identical at AT, 5° C. and 45° C.",Yes
same,"olfactory stability, overall conclusion","[2]; odor absorber in combination with the Base, up to 3 months",the most appropriate
same,degree of diacetylresveratryl thioctate stabilization 5° C.,[3]; 5° C.,0.1
same,degree of diacetylresveratryl thioctate stabilization 45° C.,[3]; 45° C.,0.094
CCCCCCCCCCC(CO)CCCCCCCC (stereo not shown) [Octyldodecanol],Solubility 1 D/AT,[1],Precipitate
same,Solubility t0/AT,[1],Insoluble
same,stability of diacetylresveratryl thioctate solubilized in a conventional solvent,[1]; general observation of the applicant,recrystallizes
same,Stability,[1],No
CCCCC(CC)COC(=O)C(C#N)=C(c1ccccc1)c1ccccc1 (stereo not shown) [Octocrylene],Solubility 0 D/AT,[4],Precipitate
same,Solubility t0/AT,[4],Soluble fraction
same,Stability,[4],No
CCCCC(CC)COC(=O)C(C#N)=C(c1ccccc1)c1ccc(OC)cc1 (stereo not shown) [Ethylhexyl methoxycrylene],Solubility 0 D/AT,[4],Precipitate
same,Solubility t0/AT,[4],Soluble fraction
same,Stability,[4],No
same,Solubility 1 D/AT,[1],Clear
same,Solubility t0/AT,[1],Partially soluble
same,Solubility t0/AT,[1]; [5],partially soluble
same,Stability,[1],Yes
same,Stability,[1]; [5],particularly satisfactory
CO[C@H]1CO[C@H]2[C@@H]1OC[C@H]2OC [Dimethyl isosorbide],Solubility t0/AT,"[4]; resveratrol in the named solvent, initial, ambient temperature",Partially soluble
same,Solubility 0 D/AT,"[4]; resveratrol in the named solvent, same day, ambient temperature",Precipitate
same,Stability,[4]; stabilization of resveratrol by the named solvent,No
same,Solubility 1 D/AT,[1],Clear
same,Solubility t0/AT,[1],Partially soluble
same,Solubility t0/AT,[1]; listed as dimethyl isosorbide,partially soluble
same,Stability,[1],Yes
CCCCCCCCOC(=O)c1ccc(C(=O)OCCCCCCCC)c(C(=O)OCCCCCCCC)c1 [Trioctyl trimellitate],Solubility 1 D/AT,[1],Clear
same,Solubility t0/AT,[1],Partially soluble
same,Solubility t0/AT,[1]; listed as trioctyl trimellitate,partially soluble
same,Stability,[1],Yes
